For assay [1], the system named is Cyfip^85.1/+ flies. Put plainly: competition for food assay (total number of social events) in Cyfip haploinsufficient flies. The note with it: for social behavior deficit (social events): Cyfip^85.1/+ flies fed 5 days, GABA 50 μM, DABA 100 μM, VPA 1 mM; for number of social events: 1 mM in the food, 1 or 2 days. Type of assay: in vivo, Drosophila. The method, then: (§1) Experiments were performed with socially experienced, 3-7 days-old male flies. Groups of eight males from the same genotype were anesthetized 24 h prior to the assay and placed in vials with food. On the day of the assay, the males were transferred without anesthesia to an empty vial and were deprived of food for 90 minutes, after which they were exposed to a food droplet and given 2 minutes to acclimate to this disturbance. The flies were then observed simultaneously for an additional 2 minutes, and the total number of social events was scored. Monitored social events were i.e. approaches, lunges, tussles, wing threat and the initiation of courtship. Of note, one interaction involving two or more flies was counted as one social event in total (Zwarts (2011), PNAS 108, 17070-17075. The behavioral assays were conducted in a behavioral chamber (25° C., 60-70% humidity) between 8 a.m. and 11 a.m. Statistics were calculated using a one-way fixed effect ANOVA model, and Kruskal Wallis test in combination with Dunn's multiple comparison test.
(§2) Example 8. GABA augmentation fully normalizes the behavioral abnormalities of Cyfip^85.1/+ flies. GABA levels were augmented in Cyfip^85.1/+ flies in three distinct ways: flies were fed either GABA, DL-2,4-diaminobutyric acid (DABA) which is a GABA-transaminase inhibitor and/or a GABA reuptake inhibitor or the anticonvulsant valproic acid (VPA) which induces GABA release (Chateauvieux (2010), Journal of biomedicine & biotechnology 2010; Coghlan (2012), Neurosci Biobehav Rev 36, 2044-2055; Reynolds (2007), Current medicinal chemistry 14, 2799-2812). All compounds were purchased from Sigma-Aldrich and were used as described before (Kanellopoulos (2012), J Neurosci. 32(38):13111-24; Zwarts (2011), PNAS 108, 17070-17075). In brief, the drugs were dissolved as per the manufacturer's instructions and used at the following concentrations: GABA at 50 μM, DABA 100 μM, Valproic acid (VPA) at 1 mM and Diazepam at 50 μM. Compounds in solution were mixed with Formula 4-24® Instant Drosophila Medium (blue food) in water. Approximately 50-60 adult flies were placed in plastic vials containing 500 μl of each solution on top of an agar matrix and allowed to feed ad libitum before behaviour analysis. Vehicle treatment consisted of solvent added to blue food alone.
Example 16. Drug screening to identify compounds that ameliorate social behavior deficits in flies with Cyfip haploinsufficiency. Control (w1118) or CYFIP (Cyfip^85.1/+) flies were treated, i.e. fed, with various compounds from the Prestwick Chemical Library® as described in Examples 8 and 15. All compounds were used at a concentration of 50 μM. The total number of social interactions was analyzed in a competition for food assay at various time-points (1, 2 or 5 days) of treatment with the compound or vehicle controls as described in Example 2.

Assay [2] deals with flies with GABAergic-specific or pan-neuronal Cyfip abrogation. Put plainly: competition for food assay (social interactions) in flies with Cyfip abrogation (UAS-Cyfip-IR). The class given is in vivo, Drosophila. The note with it: for social interactions: flies with GABAergic-specific Cyfip abrogation, GABA, DABA or VPA in food.
From the text: To control Cyfip expression, the tissue specific GAL4/UAS system was employed (Brand and Perrimon, 1993). […] Specifically, the UAS-Cyfip-RNAi transgene (UAS-Cyfip-IR) was used to abrogate Cyfip expression as described in Galy et al., 2011. To generate GAL4/UAS-Cyfip-IR flies, GAL4/GAL4 females were crossed en masse to UAS-Cyfip-IR/UAS-Cyfip-IR males. The GAL4 drivers are described in Kanellopoulos (2012), J Neurosci. 32(38):13111-24. GAL4 and UAS lines have been isogenized for 6 generations with the w1118 background before crossing. GAL4/GAL4 and UAS-Cyfip-IR/UAS-Cyfip-IR females were also crossed with w^1118 males to generate GAL4/+ and UAS-Cyfip-IR/+ progeny respectively that served as controls which should not produce the RNAi construct.
Tissue-specific GAL4 expression was achieved using the tissue-specific GAL4 promoters as follows: pan-neuronal (Elav), in cholinergic (Cha-Gla4), and GABAergic (Gad-Gal4). To avoid neurodevelopmental problems and possible lethality, the ElavGal4, was combined with the temporal TubGal80^ts system (McGuire et al., 2003; McGuire et al., 2004). At 18° C., TubGal80^ts is expressed and binds GAL4, prohibiting its binding to the UAS (i.e., no transcription of UAS-Cyfip-IR). In contrast, at 29-30° C. TubGal80^ts is degraded and will release GAL4 which in turn will bind the UAS thus activating transcription of UAS-Cyfip-IR. […] All flies/progeny for promoter-Gal4;TubGal80^ts and their controls were cultured at 18° C. and 2-days after eclosion were placed at 29-30° C. allowing UAS-Cyfip-IR transcription.
as §1
Example 8. GABA augmentation fully normalizes the behavioral abnormalities of Cyfip^85.1/+ flies. […]

Assay [3] has as its system mitochondrial membrane potential. The settings on record: literature statement; cited from earlier work.
Another assay has as its system GABA release. The settings on record: literature statement (Amoroso 1990); cited from earlier work.
Another assay concerns wild type flies. Put plainly: competition for food assay (total number of social events) in wild type (control) flies. The class given is in vivo, Drosophila. As to the method:
as §1, §2

The subject of assay [4] is mitochondrial membrane potential. Description: mitochondrial membrane potential by TMRE staining of fly brains. Type of assay: in vivo, Drosophila. The settings on record: wild type flies; oligomycin 500 μM in the food. As to the method: Briefly, for the TMRE (Enzo) and Rhodamine 123 (Sigma-Aldrich) stainings, brains were dissected in HL3 solution (mM): 110 NaCl, 5 KCl, 10 NaHCO3, 5 Hepes, 30 sucrose, 5 trehalose, and 10 MgCl2, pH 7.2. Dissected brains were stained with 10 nM TMRE or Rhodamine123 dye for 5 minutes at room temperature. Brains were quickly washed with HL3 solution, mounted on glass slides and imaged immediately with confocal microscope Leica SP8 using the same settings for all the samples.
(§3) Since Aralar needs a proton for import of its substrate (i.e. GABA) into mitochondria, the equilibrium distribution of the transport substrates is set by the pH gradient across the mitochondrial membrane, which in turn is a function of fuel availability, oxidative phosphorylation and activity of the TCA cycle.

In another assay the test system is GABA. Put plainly: GABA levels by ELISA after fractionation of fly brains. The class given is in vivo, Drosophila. The note with it: wild type flies; oligomycin 500 μM in the food. The method, then: Finally, GABA levels were measured by ELISA (GABA ELISA Enzyme immunoassay (IBL, ID59301) following a fractionation to enrich for mitochondria or synaptic vesicles (Depner (2014), Nat Protoc 9, 2796-2808). In brief, total brain lysates, isolated mitochondria and vesicles were used for GABA derivatization. The samples were incubated with a polyclonal antibody against GABA-derivative, together with assay reagent containing the GABA-derivative (tracer). The concentration of antibody-bound tracer is inverse proportional to the GABA concentration in the sample. Peroxidase conjugate was added detect the tracer and tetramethylbenzidine (TMB) served as a peroxidase substrate. The absorbance was measured in a microplate photometer at 450 nm.
as §3

Assay [5] has as its system Cyfip^85.1/+ flies. Put plainly: Drosophila locomotor activity (DAM system). The note with it: 10 μM rotenone for 4 days. Type of assay: in vivo. The method, then: The Drosophila Activity Monitoring (DAM) system from Trikinetics Inc. (Walthman, MA) was used to record the locomotor activity of flies. Male flies (1-week old), anesthetised on ice, were individually loaded into the locomotor activity-monitoring tubes, thin 5 mm diameter polycarbonate tubes containing 5% sucrose and 2% agar food and incubated for at least 4 days under 12:12 LD (light-dark) conditions at 25° C. and 50-60% humidity. Light was turned on at 7:30 am and turned off at 7:30 pm. The DAM system software counts the number of times the single fly walks through an infrared beam aimed at the middle of the tube. Data were recorded as the number of crossings (transitions) per bin of 5-30 minutes. To allow the flies to recover from anaesthesia and to get acclimatized to the new environment data from the first day was excluded from the analysis. Two independent experiments were performed and at least 40 flies for each genotype were analysed. Statistical analysis was conducted using GraphPad Prism 6.0 software. Data were evaluated by one-way analysis of variance (ANOVA) with Sidak's post hoc test and by non-parametric Kruskal-Wallis's test with Dunn's correction.

`NCCC(N)C(=O)O` (racemic) [DABA, DL-2,4-diaminobutyric acid]: the “social behavior deficit (social events)” value in the assay on Cyfip^85.1/+ flies [1] was “ameliorated the social behavior deficit”. In addition, the social interactions entry in assay [2] is reported as “restored the social interactions”.

Turning to `O=C1CCc2ccc(OCCCCN3CCN(c4cccc(Cl)c4Cl)CC3)cc2N1` [Aripiprazole, 7-[4-[4-(2,3-dichlorophenyl)piperazin-1-yl]butoxy]-3,4-dihydro-1H-quinolin-2-one], in assay [3], the mitochondrial membrane potential result is “decreases the mitochondrial membrane potential”.

`CC(=O)c1ccc(S(=O)(=O)NC(=O)NC2CCCCC2)cc1` [Acetohexamide, 4-Acetyl-N-[(cyclohexylamino)carbonyl]benzenesulfonamide]: the GABA release entry with GABA release is “indirectly increase GABA release”. Besides, the mitochondrial membrane potential entry in assay [3] is listed as “decrease the mitochondrial membrane potential”.

As to `CC[C@H]1/C=C/C=C/C[C@@H](C)[C@H](O)[C@@](C)(O)C(=O)[C@@H](C)[C@H](O)[C@@H](C)C(=O)[C@@H](C)[C@H](O)[C@@H](C)/C=C/C(=O)O[C@@H]2[C@H](C)[C@H](CC1)O[C@]1(CC[C@H](C)[C@H](C[C@@H](C)O)O1)[C@H]2C` [oligomycin], the competition for food entry in the assay on wild type flies (wild type flies, oligomycin 500 μM in the food, 1 day) is on record as “decreased”. The “mitochondrial membrane potential (TMRE staining)” value in assay [4] is “increasing mitochondrial membrane potential”. Also, in the assay with GABA, the “level of available GABA in the cytosol (ELISA)” value is reported as “decreased”.

With `CCCC(CCC)C(=O)O` [VPA, valproic acid], in the assay with Cyfip^85.1/+ flies [1], the “social behavior deficit (social events)” value is on record as “ameliorated the social behavior deficit”. The social interactions entry in assay [2] is reported as “restored the social interactions”.

Take `C=C(C)[C@H]1Cc2c(ccc3c2O[C@@H]2COc4cc(OC)c(OC)cc4[C@@H]2C3=O)O1` [rotenone]: the “hyperactivity (locomotion over 24 hours)” value in the assay on Cyfip^85.1/+ flies [5] was “did not restore the hyperactivity”; with Cyfip^85.1/+ flies [5] (listed as Rotenone), “does not rescue hyperactivity”. Further, the “behavior of wild type flies (competition for food)” value with wild type flies (wild type flies, rotenone 1-10 μM in the food, 4 days) was “no effect”. Moreover, the “reversibility of the effect of treatment on social behavior” value with Cyfip^85.1/+ flies [1] (Cyfip^85.1/+ flies treated 4 days with rotenone, tested for 5 days post-treatment) is “reversible”. In addition, the “social deficits (competition for food)” value in the assay with Cyfip^85.1/+ flies [1] (Cyfip^85.1/+ flies, rotenone 1-10 μM in the food, 4 days) is reported as “ameliorate social deficits”.

On to `CCCNC(=O)NS(=O)(=O)c1ccc(Cl)cc1` [Chlorpropamide, (1-[p-Chlorobenzenesulfony1]-3-propylurea)], for which the GABA release entry with GABA release is reported as “indirectly increase GABA release”. Besides, in assay [3], the mitochondrial membrane potential entry is given as “decrease the mitochondrial membrane potential”.

As for `COc1ccc(CN2CCNCC2)c(OC)c1OC.Cl.Cl` [Trimetazidine dihydrochloride, 1-[(2,3,4-trimethoxyphenyl)methyl]piperazine dihydrochloride], the mitochondrial membrane potential result in assay [3] is recorded as “balances the mitochondrial membrane potential”.

Consider “4-formyl-5-hydroxy-6-methylpyridin-3 yl) methyl dihydrogen phosphate [pyridoxal 5′-phosphate hydrate]”, for which the “number of social events” value was “reduced the number of social events” in the assay with wild type flies (wild type flies, 1 mM in the food, 2 days); “rescues the deficits in social behavior” with Cyfip^85.1/+ flies [1] (Cyfip^85.1/+ flies); “increased the number of social events to the level observed for normal wild type flies” in the assay on Cyfip^85.1/+ flies [1] (Cyfip^85.1/+ flies, listed as PLP).

As for `NCCCC(=O)O` [GABA, gamma-Aminobutyric acid], the social interaction entry in the assay on wild type flies (adult wild-type flies, high GABA diet, 5 days) is on record as “decreased social interaction”. Besides, in the assay on Cyfip^85.1/+ flies [1], the “social behavior deficit (social events)” value is “ameliorated the social behavior deficit”. The “duration of the effect post treatment (competition for food)” value with Cyfip^85.1/+ flies [1] (Cyfip^85.1/+ flies treated 5 days with GABA, tested post treatment) is listed as 2 days. Moreover, the “behavioral deficits (social interactions)” value in assay [2] (adult pan-neuronal Cyfip abrogation, GABA feeding 5 days) is recorded as “rescued behavioral deficits”. Besides, in assay [2], the social interactions entry was “restored the social interactions”.

For `Cc1ccccc1C(C(=O)NC1CCCC1)N(C(=O)Cn1cnc2ccccc21)c1cccc(F)c1` (stereo not drawn) [ML309, 2-(N-[2-(benzimidazol-1-yl)acetyl]-3-fluoroanilino)-N-cyclopentyl-2-(2-methylphenyl)acetamide], the “abnormal social feeding behavior (social events, competition for food)” value in the assay with Cyfip^85.1/+ flies [1] (Cyfip^85.1/+ flies, ML309 with the food at 50 µM, 1 or 3 days) is on record as “ameliorated the abnormal social feeding behavior”.

(Values after patent publication US20240139205A1, “MODULATORS OF ARALAR FOR TREATING NEUROLOGICAL DISORDERS” (Universite de Lausanne, priority 2020, published 2024).)
